What was measured:
[1] = system: human TRPA1; experiment: Ratiometric calcium imaging of NAPQI activation of TRPA1 in HEK 293 cells; format: cell-based; settings: 7 μM NAPQI; for inhibition of the activation of the receptor (TRPA1) by NAPQI: 4 μM test substance, HEK 293 cells expressing human TRPA1, FIG. 1
Experimental: The calcium ion channel TRPA 1 is activated by NAPQI. This activation may be determined by ratiometric calcium imaging.
HEK 293 cells expressing human TRPA1 were pre-incubated with 7 μM NAPQI and the calcium fluorophore FURA II. One experiment was run in the presence of 4 μM NBMI and the another was run in the presence of 4 μM NAC.

[2] = system: paracetamol intoxicated mice; experiment: Paracetamol intoxicated mice study, i.p. paracetamol (ALT, AST); format: in vivo; settings: paracetamol 300 mg/kg I.P., 24 hours
Experimental: In normal mice, the liver enzyme alanine transaminase (ALT) level is about 36-40 unit/L and the liver enzyme aspartate transaminase (AST) level is about 90 unit/L. […] The ratio of AST: ALT can also be relevant in humans; a value at or below 1 is considered to indicate toxicity. […] 30 minutes later, two (2) of the mice were administered vehicle only, two (2) received NAC 1200 mg/kg per os, two (2) received NBMI 200 mg/kg per os. The mice were sacrificed at 24 hours.

[3] = Clinical proof of concept study: paracetamol and cys-paracetamol in venous blood after 1 g paracetamol with or without NBMI; format: in vivo, human; settings: venous blood over eight hours
Experimental: A pilot clinical study was performed at the Lund Hospital Clinical Trial Unit, on three occasions.

[4] = system: paracetamol intoxicated mice; experiment: Paracetamol intoxicated mice study, oral paracetamol (ALT); format: in vivo
Experimental: (§1) The ratio of AST: ALT can also be relevant in humans; a value at or below 1 is considered to indicate toxicity.
20 minutes later, half of the mice (3) were administered vehicle (0.5% (w/v) carboxymethylcellulose 300-600 centipoises in water) only, half of the mice (3) received NBMI 100 mg/kg per os (NBMI dissolved in CMC as described below). […]

[5] = system: paracetamol intoxicated mice; experiment: NBMI versus vehicle in paracetamol intoxicated mice, i.p. paracetamol, synchronised oral dosing (AST, ALT); format: in vivo
Experimental: as §1
Mice were sacrificed at 24 hours after administration, following which levels of liver enzymes AST and ALT were measured.
In the NBMI-treated group, eleven (11) mice were treated.

[6] = Clinical trials of NBMI, adverse events; format: in vivo; settings: 4.5-9 mg/kg dose in humans
[7] = NAC 1200 mg/kg per os 30 minutes later
[8] = NBMI 200 mg/kg per os 30 minutes later
[9] = paracetamol 200 mg/kg i.p., synchronous oral NBMI 680 mg/kg in CMC, 24 hours

SMILES: CC(=O)N[C@@H](CS)C(=O)O [NAC, N-acetyl cysteine, reference compound]
- inhibition of the activation of the receptor (TRPA1) by NAPQI [1]: only partial inhibition
- AST level [2, 7]: 180 unit/L
- average ALT level [2, 7]: 55 unit/L

SMILES: O=C(NCCS)c1cccc(C(=O)NCCS)c1 [NBMI, N,N-bis-2-mercaptoethyl isophthalamide]
- inhibition of the activation of the receptor (TRPA1) by NAPQI [1]: almost completely inhibited
- decrease of area under the curve (AUC) of cys-paracetamol ([3]; 600 mg NBMI one hour prior to 1 g paracetamol): 23%
- decrease of area under the curve (AUC) of cys-paracetamol ([3]; 1,200 mg NBMI two hours before 1 g paracetamol): 73%
- median ALT level ([4]; paracetamol 700 mg/kg per os, NBMI 100 mg/kg per os 20 minutes later, sacrificed at 17 hours): 624 unit/L
- median ALT lower than the median of the intoxicated animals ([4]; po, 100 mg/kg): about 95%
- AST level (printed as ALT level) [2, 8]: 600 unit/L
- average ALT level [2, 8]: 984 unit/L
- AST/ALT ratio, average ([5]; 680 mg/kg, 24 h): 2.1
- ALT, average [5, 9]: 952 units/L
- AST, average [5, 9]: 753 units/L
- drug related adverse events [6]: no drug related adverse events

SMILES: CC(=O)N=C1C=CC(=O)C=C1 [NAPQI, N-acetyl-p-benzoquinone imine]
- receptor activation ([1]; in the absence of NBMI or NAC): about 55%

From patent US20250325503A1, “NEW USE OF N,N-BIS-2-MERCAPTOETHYL ISOPHTHALAMIDE” (EMERAMED LIMITED, priority 2016, published 2025)
